Data: patent US20010046987A1, “Oxazolidinones having a sulfoximine functionality” (priority 1999, published 2001)
Values after ≈ are worked out from the molar mass of the structure shown.

Key:
Assay type in all cases: cell-based
Staphylococcus aureus = test: MIC by agar dilution, SAUR 9213; details: for Antibacterial Activity Minimum Inhibitory Concentration SAUR 9213: strain SAUR 9213; for MIC: Staphylococcus aureus, strain SAUR 9213, read-out: Antibacterial Activity Minimum Inhibitory Concentration SAUR 9213
Description: (§1) The in vitro activity of compounds of this invention can be assessed by standard testing procedures such as the determination of minimum inhibitory concentration (MIC) by agar dilution as described in “Approved Standard.

[1] = tested on: Staphylococcus epidermidis; test: MIC by agar dilution, SEPI 30593; details: for Antibacterial Activity Minimum Inhibitory Concentration SEPI 30593: strain SEPI 30593; for MIC: Staphylococcus epidermidis, strain SEPI 30593, read-out: Antibacterial Activity Minimum Inhibitory Concentration SEPI 30593
Description: as §1

Enterococcus faecium = test: MIC by agar dilution, EFAE 12712; details: for Antibacterial Activity Minimum Inhibitory Concentration EFAE 12712: strain EFAE 12712; for MIC: Enterococcus faecium, strain EFAE 12712, read-out: Antibacterial Activity Minimum Inhibitory Concentration EFAE 12712
Description: as §1

Streptococcus pneumoniae = test: MIC by agar dilution, SPNE 9912; details: for Antibacterial Activity Minimum Inhibitory Concentration SPNE 9912: strain SPNE 9912; for MIC: Streptococcus pneumoniae, strain SPNE 9912, read-out: Antibacterial Activity Minimum Inhibitory Concentration SPNE 9912
Description: as §1

Streptococcus pyogenes = test: MIC by agar dilution, SPYO 152; details: for Antibacterial Activity Minimum Inhibitory Concentration SPYO 152: strain SPYO 152; for MIC: Streptococcus pyogenes, strain SPYO 152, read-out: Antibacterial Activity Minimum Inhibitory Concentration SPYO 152
Description: as §1

H. influenzae = test: MIC by agar dilution, HINF 30063; details: for Antibacterial Activity Minimum Inhibitory Concentration HINF 30063: strain HINF 30063; for MIC: Haemophilus influenzae, strain HINF 30063, read-out: Antibacterial Activity Minimum Inhibitory Concentration HINF 30063
Description: as §1

Enterococcus faecalis = test: MIC by agar dilution, EFAE 9217; details: for Antibacterial Activity Minimum Inhibitory Concentration EFAE 9217: strain EFAE 9217; for MIC: Enterococcus faecalis, strain EFAE 9217, read-out: Antibacterial Activity Minimum Inhibitory Concentration EFAE 9217
Description: as §1

Moraxella catarrhalis = test: MIC by agar dilution, MCAT 30607; details: for Antibacterial Activity Minimum Inhibitory Concentration MCAT 30607: strain MCAT 30607; for MIC: Moraxella catarrhalis, strain MCAT 30607, read-out: Antibacterial Activity Minimum Inhibitory Concentration MCAT 30607
Description: as §1

SMILES | Antibacterial Activity Minimum Inhibitory Concentration SAUR 9213 (Staphylococcus aureus) [µg/mL] | Antibacterial Activity Minimum Inhibitory Concentration SEPI 30593 [1] [µg/mL] | Antibacterial Activity Minimum Inhibitory Concentration EFAE 12712 (Enterococcus faecium) [µg/mL] | Antibacterial Activity Minimum Inhibitory Concentration SPNE 9912 (Streptococcus pneumoniae) [µg/mL] | Antibacterial Activity Minimum Inhibitory Concentration SPYO 152 (Streptococcus pyogenes) [µg/mL] | Antibacterial Activity Minimum Inhibitory Concentration HINF 30063 (H. influenzae) [µg/mL] | Antibacterial Activity Minimum Inhibitory Concentration EFAE 9217 (Enterococcus faecalis) [µg/mL] | Antibacterial Activity Minimum Inhibitory Concentration MCAT 30607 (Moraxella catarrhalis) [µg/mL] | MIC (Staphylococcus aureus) [µg/mL] | MIC [1] [µg/mL] | MIC (Enterococcus faecium) [µg/mL] | MIC (Streptococcus pneumoniae) [µg/mL] | MIC (Streptococcus pyogenes) [µg/mL] | MIC (H. influenzae) [µg/mL] | MIC (Enterococcus faecalis) [µg/mL] | MIC (Moraxella catarrhalis) [µg/mL]
C[N-][S+2]1([O-])CCC(c2ccc(N3CC(CNC(=S)C4CC4)OC3=O)cc2F)CC1 [Example 31, N-[((5S)-3-{3-Fluoro-4-[1-(methylimino)-1-oxidohexahydro-1λ^4-thiopyran-4-yl]phenyl}-2-oxo-1,3-oxazolidin-5-yl)methyl]cyclopropanecarbothioamide, E-isomer] | 2 | 1 | 2 | 0.5 | 1 | 8 | 1 | 4 |  |  |  |  |  |  |  | 
CCC(=S)NC[C@H]1CN(c2ccc(C3CCS(=O)(=NC(C)=O)CC3)c(F)c2)C(=O)O1 (single isomer, unassigned) [Example 14] | 1 | 0.5 | 1 | 0.25 | 0.25 | 4 | 0.5 | 2 |  |  |  |  |  |  |  | 
CCC(=S)NCC1CN(c2ccc(C3CC[S+2]([O-])([N-]C)CC3)c(F)c2)C(=O)O1 [Example 32, N-[((5S)-3-{3-Fluoro-4-[1-(methylimino)-1-oxidohexahydro-1λ^4-thiopyran-4-yl]phenyl}-2-oxo-1,3-oxazolidin-5-yl)methyl]propanethioamide, E-isomer] |  |  |  |  |  |  |  |  | 4 (≈ 9.36 µM) | 1 (≈ 2.34 µM) | 2 (≈ 4.68 µM) | 0.5 (≈ 1.17 µM) | 1 (≈ 2.34 µM) | 8 (≈ 18.7 µM) | 2 (≈ 4.68 µM) | 8 (≈ 18.7 µM)
CC(=O)NC[C@H]1CN(c2ccc(C3CCS(=O)(=NC(=O)OCc4ccccc4)CC3)c(F)c2)C(=O)O1 (single isomer, unassigned) [Example 33] | 8 | 2 | 4 | 1 | 1 | 64 | 4 | 16 |  |  |  |  |  |  |  | 
CC(=O)NC[C@H]1CN(c2ccc(C3CCS(=N)(=O)CC3)c(F)c2)C(=O)O1 (single isomer, unassigned) [Example 4] | 16 | 2 | 4 | 1 | 1 | 8 | 2 | 4 |  |  |  |  |  |  |  | 
COC(=O)N=S1(=O)CCN(c2ccc(N3C[C@H](CNC(=S)C4CC4)OC3=O)cc2F)CC1 [Example 28, N-[((5S)-3-{3-Fluoro-4-(1-[(methoxycarbonyl)imino]-1-oxido-1λ^4,4-thiazinan-4-yl)phenyl}-2-oxo-1,3-oxazolidin-5-yl)methyl]cyclopropanecarbothioamide] | 2 | 0.5 | 1 | 0.25 | 0.5 | 4 | 1 | 2 |  |  |  |  |  |  |  | 
CN=S1(=O)CCN(c2ccc(N3C[C@H](CNC(C)=O)OC3=O)cc2F)CC1 [PREP 3, N-({(5S)-3-[3-Fluoro-4-(1-methylimino-1-oxido-1λ^4,4-thiazinan-4-yl)phenyl]-2-oxo-1,3-oxazolidin-5-yl}methyl)acetamide] | 16 | 2 | 4 | 1 | 2 | 16 | 4 | 8 |  |  |  |  |  |  |  | 
CCC(=S)NC[C@H]1CN(c2ccc(C3CCS(=N)(=O)CC3)c(F)c2)C(=O)O1 (single isomer, unassigned) [Example 10] | 1 | 0.25 | 0.5 | 0.25 | 0.25 | 2 | 0.5 | 2 |  |  |  |  |  |  |  | 
CCC(=S)NC[C@H]1CN(c2ccc([C@H]3CC[S@+2]([O-])([N-]C)CC3)c(F)c2)C(=O)O1 [Example 13, N-({(5S)-3-[3-Fluoro-4-[1-(methylimino)-1-oxidohexahydro-1λ^4-thiopyran-4-yl]phenyl]-2-oxo-1,3-oxazolidin-5-yl}methyl)propanethioamide, Z-isomer] |  |  |  |  |  |  |  |  | 1 (≈ 2.34 µM) | 0.5 (≈ 1.17 µM) | 1 (≈ 2.34 µM) | 0.25 (≈ 0.585 µM) | 0.25 (≈ 0.585 µM) | 8 (≈ 18.7 µM) | 0.5 (≈ 1.17 µM) | 2 (≈ 4.68 µM)
CCC(=S)NC[C@H]1CN(c2ccc(C3CCS(=O)(=NCCO)CC3)c(F)c2)C(=O)O1 (single isomer, unassigned) [Example 24] | 2 | 0.5 | 1 | 0.25 | 0.5 | 4 | 1 | 4 |  |  |  |  |  |  |  | 
CC(=O)NC[C@H]1CN(c2ccc(C3CCS(=N)(=O)CC3)c(F)c2)C(=O)O1 (single isomer, unassigned) [Example 8] | 8 | 1 | 2 | 0.5 | 1 | 8 | 2 | 2 |  |  |  |  |  |  |  | 
CN=S1(=O)CCN(c2ccc(N3C[C@H](CNC(=S)C4CC4)OC3=O)cc2F)CC1 [Example 26, N-[((5S)-3-{3-Fluoro-4-[1-(methylimino)-1-oxido-1λ^4,4-thiazinan-4-yl]phenyl}-2-oxo-1,3-oxazolidin-5-yl)methyl]cyclopropanecarbothioamide] |  |  |  |  |  |  |  |  | 2 (≈ 4.54 µM) | 0.5 (≈ 1.13 µM) | 1 (≈ 2.27 µM) | 0.25 (≈ 0.567 µM) | 0.5 (≈ 1.13 µM) | 4 (≈ 9.08 µM) | 0.5 (≈ 1.13 µM) | 2 (≈ 4.54 µM)
